{"source": "patent US20080108513A1", "about": "“Cellular Arrays” (Northwestern University, priority 2006, published 2008)", "target": "T1, ERα (Homo sapiens, UniProt P03372)", "T1 sequence (P03372 1-595)": "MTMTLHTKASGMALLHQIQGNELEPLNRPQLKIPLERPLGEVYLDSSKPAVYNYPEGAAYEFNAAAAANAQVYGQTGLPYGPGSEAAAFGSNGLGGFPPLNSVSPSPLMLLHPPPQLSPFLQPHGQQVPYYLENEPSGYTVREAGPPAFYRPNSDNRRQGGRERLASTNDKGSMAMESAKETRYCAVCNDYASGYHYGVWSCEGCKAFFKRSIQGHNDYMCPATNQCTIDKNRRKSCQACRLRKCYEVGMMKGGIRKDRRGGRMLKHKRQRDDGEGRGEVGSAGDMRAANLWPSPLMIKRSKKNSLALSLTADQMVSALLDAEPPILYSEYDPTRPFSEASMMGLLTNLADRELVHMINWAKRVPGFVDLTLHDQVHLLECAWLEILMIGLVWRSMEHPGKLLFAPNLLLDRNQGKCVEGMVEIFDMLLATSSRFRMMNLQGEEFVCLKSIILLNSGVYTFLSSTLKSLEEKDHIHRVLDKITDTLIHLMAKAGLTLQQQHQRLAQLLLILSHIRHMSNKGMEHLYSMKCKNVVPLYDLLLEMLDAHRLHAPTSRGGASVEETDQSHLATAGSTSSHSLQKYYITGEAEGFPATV", "data": [{"smiles": "C[C@]12CC[C@@H]3c4ccc(O)cc4C[C@@H](CCCCCCCCC[S+]([O-])CCCC(F)(F)C(F)(F)F)[C@H]3[C@@H]1CC[C@@H]2O", "note": "(some centres unmarked) [FUL, fulvestrant]", "values": [{"measurement": "blockade of ERα-stimulated activity by E2", "setting": "10^−6 M FUL with 10^−9 M E2, MCF-7 cells on array", "value": "complete blockade"}, {"measurement": "effect on expression of the pLUC plasmid (CMV promoter)", "setting": "MCF-7 cells on array, 10^−9 M E2 or 10^−9 M E2+10^−6 M FUL", "value": "lowered"}]}]}
